Experimental data reported in patent publication US20050053931A1, “Method for the diagnosis and therapy of renal cell carcinoma” (priority 2001, published 2005).
Residues, ends and D or L forms follow the SMILES beside them. *: point of attachment. Cbz = O=C(OCc1ccccc1)*

Tests used:
[1] = test system: glioma cells; conditions: upon adenoviral Nbk gene transfer with Ad-TreNbk-tTA; cited from earlier work
[2] = test system: mycNbk expression in DU145 prostate carcinoma cells; experiment: Conditional expression of mycNbk after Ad-TreNbk-tTA infection (Western blot); format: cell-based, human; conditions: 24 h after infection with Ad-TreNbk-tTA at 25 MOI
Excerpt: For regulable expression of the pro-apoptotic gene Nbk in human cells, an adenoviral vector based on the adenovirus serotype 5 backbone was constructed. In this construct, the E3 region was replaced by the expression cassette for the tTA and the E1 region was replaced by an expression cassette for Nbk. To allow for convenient detection of the exogenous Nbk, a myc tag was inserted at the N-terminus of the human Nbk cDNA. Constitutive expression of the tTA was achieved by putting the tTA under the control of a CMV promoter. In the absence of tetracyclin or doxycyclin the tTA fusion protein binds via the TetR portion to the TRE in the PhCMV* promoter and activates via the VP16AD portion the transcription of the mycNbk. In the presence of tetra- or doxycyclin Nbk expression is repressed and switched off.
The recombinant adenovirus Ad-TreNbk-tTA (FIG. 7A) was employed for expression of the myc tagged Nbk (mycNbk) in a doxycyclin dependent manner. […] Apart from DU145, Nbk could be strongly expressed by the use of this adenoviral vector 24 h after transduction in a panel of other carcinomas or non-epithelial tumor cells, i.e. sarcoma, glioma and other mesenchymal cell types.
Apoptosis was determined by the use of a modified cell cycle analysis technique that relies on the measurement of cellular DNA content on the single cell level by flow cytometry. […]

| SMILES | Nbk expression levels [1] | sensitivity for Nbk-induced apoptosis [1] | doxycyclin concentration at which Nbk expression is almost completely suppressed [2] |
| --- | --- | --- | --- |
| CC(C)C[C@@H](C=O)NC(=O)[C@H](CC(C)C)NC(=O)[C@H](CC(C)C)NC(=O)OCc1ccccc1 [MG132] (Cbz-Leu-Leu-Leu-aldehyde) | enhanced Nbk expression levels | increased sensitivity for Nbk-induced apoptosis | – |
| C[C@H]1c2cccc(O)c2C(O)=C2C(=O)[C@]3(O)C(O)=C(C(N)=O)C(=O)[C@@H](N(C)C)[C@@H]3[C@@H](O)[C@@H]21 [doxycyclin] | – | – | ≥ 10 ng/mL |
